In patent US10035760B2, “Inhibitors of human immunodeficiency virus replication” (priority 2013, dated 2018) one finds EC50 data, which are given here for three compounds.

In the experiment the test system is recombinant NL4-3 virus (Renilla luciferase) in MT-2 cells. The experiment in a line: HIV cell culture assay (antiviral activity, luciferase readout in infected MT-2 cells). Type of experiment: cell-based. The following applies: Renilla. The procedure, abridged: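 Nef-deleted NL4-3 carrying Renilla luciferase, produced by 293T transfection, used to infect MT-2 cells for 4–5 days with serial compound dilutions. Live-cell luciferase signal read as infection marker; EC50 from exponential median-effect equation.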

Setting [1] is: NL43, read-out: Activity, antiviral activity class, recombinant NL4-3 Renilla luciferase virus in MT-2 cells.

Where two headings read alike, the source gives them in different places.

In the case of `CCN(C(=O)[C@H](Cc1ccccc1)NC(=O)NS(=O)(=O)c1cccc(-c2ccsc2)c1C)c1ccc(OC)cc1` [Example 157, (S)—N-ethyl-N-(4-methoxyphenyl)-2-(3-((2-methyl-3-(thiophen-3-yl)phenyl)sulfonyl)ureido)-3-phenylpropanamide], under setting [1], the EC50 lay in the range of 100 to 1000 nM.

As to `Cc1ccccc1S(=O)(=O)NC(=O)N[C@@H](Cc1ccccc1)C(=O)N(C)c1cccc2[nH]cnc12` [Example CA-101, (S)—N-(1H-benzo[d]imidazol-4-yl)-N-methyl-3-phenyl-2-(3-(o-tolylsulfonyl)ureido)propanamide], under setting [1], the EC50 is 1000 to 10000 nM. As for `Cc1ccccc1S(=O)(=O)NC(=O)N[C@@H](Cc1cc(F)cc(F)c1)C(=O)N(C)c1ccc(F)cc1F` [Example CA-112, (S)—N-(2,4-difluorophenyl)-3-(3,5-difluorophenyl)-N-methyl-2-(3-(o-tolylsulfonyl)ureido)propanamide], the EC50 by setting is: under setting [1], 1000 to 10000 nM; (NL43, recombinant NL4-3 Renilla luciferase virus in MT-2 cells) 1290 nM.
